Measurements published in publication PMC3956377, “Rapid kill of malaria parasites by artemisinin and semi-synthetic endoperoxides involves ROS-dependent depolarization of the membrane potential” (Journal of Antimicrobial Chemotherapy, 2013).

Tests used:
Format in all cases: biochemical
PfNDH2 = biological target: T1, PfNDH2 (Plasmodium falciparum, UniProt Q8I302); experiment: spectrophotometric NADH:quinone oxidoreductase assay ([…] and […] nm); details: read-out: Percentage inhibition / PfNDH2
T1 construct: gene PF3D7_0915000; recombinant, heterologously expressed; Escherichia coli crude membrane preparation
T1 sequence (Q8I302 34-533): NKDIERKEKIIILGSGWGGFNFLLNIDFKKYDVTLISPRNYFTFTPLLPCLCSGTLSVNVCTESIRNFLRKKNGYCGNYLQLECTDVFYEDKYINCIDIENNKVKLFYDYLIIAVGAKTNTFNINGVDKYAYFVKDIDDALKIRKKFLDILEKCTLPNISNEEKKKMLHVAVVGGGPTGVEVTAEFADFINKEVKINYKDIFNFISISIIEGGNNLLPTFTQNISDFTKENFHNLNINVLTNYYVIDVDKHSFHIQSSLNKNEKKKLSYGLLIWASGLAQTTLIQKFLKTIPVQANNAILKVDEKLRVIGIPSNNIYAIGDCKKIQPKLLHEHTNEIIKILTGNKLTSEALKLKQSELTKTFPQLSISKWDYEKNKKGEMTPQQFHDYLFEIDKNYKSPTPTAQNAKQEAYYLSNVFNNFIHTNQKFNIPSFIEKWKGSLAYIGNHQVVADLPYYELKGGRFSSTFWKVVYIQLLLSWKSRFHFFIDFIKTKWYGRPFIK

[1] = biological target: T2, complex IV (cytochrome c oxidase) (Plasmodium falciparum, UniProt A0A5K1K9G8); experiment: spectrophotometric cytochrome c oxidation; details: read-out: Percentage inhibition / complex IV
T2 construct: gene PF3D7_MIT02100; native complex in cell-free extract of saponin-freed parasites; cytochrome c oxidase activity; with Cytochrome c oxidase subunit 3
T2 sequence (A0A5K1K9G8 1-508): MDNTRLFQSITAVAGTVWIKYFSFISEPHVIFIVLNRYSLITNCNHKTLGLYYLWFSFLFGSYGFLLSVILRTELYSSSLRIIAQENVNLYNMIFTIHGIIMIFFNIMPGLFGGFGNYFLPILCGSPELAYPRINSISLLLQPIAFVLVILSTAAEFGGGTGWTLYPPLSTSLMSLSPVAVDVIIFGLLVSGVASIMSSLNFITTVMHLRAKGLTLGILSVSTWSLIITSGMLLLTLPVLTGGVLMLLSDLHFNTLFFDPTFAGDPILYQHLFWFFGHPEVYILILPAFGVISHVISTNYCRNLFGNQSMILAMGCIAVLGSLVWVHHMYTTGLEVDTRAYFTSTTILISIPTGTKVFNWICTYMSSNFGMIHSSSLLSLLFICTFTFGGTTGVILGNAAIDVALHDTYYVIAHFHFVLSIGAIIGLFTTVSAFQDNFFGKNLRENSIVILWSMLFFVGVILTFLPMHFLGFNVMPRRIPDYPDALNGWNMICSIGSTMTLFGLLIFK
T2 sequence (Q7HP05 1-279 partner): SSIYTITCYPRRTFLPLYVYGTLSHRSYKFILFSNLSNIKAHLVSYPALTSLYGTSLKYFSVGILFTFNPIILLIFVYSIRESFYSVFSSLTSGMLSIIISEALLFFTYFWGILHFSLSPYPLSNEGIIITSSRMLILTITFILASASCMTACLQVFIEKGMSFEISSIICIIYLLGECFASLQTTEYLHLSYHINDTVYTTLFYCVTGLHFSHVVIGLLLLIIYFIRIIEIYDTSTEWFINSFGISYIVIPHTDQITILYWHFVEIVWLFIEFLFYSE

bc1 (complex III) = biological target: T3, bc1 (complex III) (Plasmodium falciparum, UniProt Q7HP03+Q8IL75); experiment: spectrophotometric cytochrome c reduction ([…]-542 nm); details: read-out: Percentage inhibition / bc1 (complex III)
T3 construct: gene PF3D7_MIT02300; native complex in cell-free extract of saponin-freed parasites; decylubiquinol:cytochrome c oxidoreductase activity; with Cytochrome c1, heme protein, mitochondrial
T3 sequence (Q7HP03 1-376): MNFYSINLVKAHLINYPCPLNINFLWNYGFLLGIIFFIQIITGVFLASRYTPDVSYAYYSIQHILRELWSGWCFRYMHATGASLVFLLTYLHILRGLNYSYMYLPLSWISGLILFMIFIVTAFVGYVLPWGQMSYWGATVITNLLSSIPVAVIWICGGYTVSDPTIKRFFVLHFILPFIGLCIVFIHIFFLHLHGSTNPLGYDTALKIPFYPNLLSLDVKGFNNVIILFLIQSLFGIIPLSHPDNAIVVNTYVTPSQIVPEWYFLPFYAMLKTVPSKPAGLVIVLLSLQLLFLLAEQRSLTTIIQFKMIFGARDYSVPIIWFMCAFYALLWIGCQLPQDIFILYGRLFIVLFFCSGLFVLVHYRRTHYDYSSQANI
T3 sequence (Q8IL75 31-355): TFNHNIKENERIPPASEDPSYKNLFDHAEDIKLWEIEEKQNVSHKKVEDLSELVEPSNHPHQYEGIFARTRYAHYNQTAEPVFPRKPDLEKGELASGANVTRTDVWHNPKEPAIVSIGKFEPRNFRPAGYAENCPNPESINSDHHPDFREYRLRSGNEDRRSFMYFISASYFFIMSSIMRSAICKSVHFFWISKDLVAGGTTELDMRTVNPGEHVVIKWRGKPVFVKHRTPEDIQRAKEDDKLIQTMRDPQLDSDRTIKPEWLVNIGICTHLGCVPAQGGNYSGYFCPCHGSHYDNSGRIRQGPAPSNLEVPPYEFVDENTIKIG
T3 sequence (Q8I6U9 1-394 partner): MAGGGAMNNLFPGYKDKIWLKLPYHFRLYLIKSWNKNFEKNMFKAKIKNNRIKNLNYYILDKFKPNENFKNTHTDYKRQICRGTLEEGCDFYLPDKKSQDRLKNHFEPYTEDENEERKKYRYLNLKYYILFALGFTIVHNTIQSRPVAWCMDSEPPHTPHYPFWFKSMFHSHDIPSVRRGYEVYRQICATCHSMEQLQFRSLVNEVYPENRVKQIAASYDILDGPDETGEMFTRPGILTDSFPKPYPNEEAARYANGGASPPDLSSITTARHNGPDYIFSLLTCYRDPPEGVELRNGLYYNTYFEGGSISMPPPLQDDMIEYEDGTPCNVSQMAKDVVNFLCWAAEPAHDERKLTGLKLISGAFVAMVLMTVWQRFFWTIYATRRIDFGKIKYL

SMILES	inhibition at 1 µM (PfNDH2) [%]	inhibition at 1 µM [1] [%]	inhibition at 1 µM (bc1 (complex III)) [%]
C[C@@H]1CC[C@H]2[C@@H](C)C(O)O[C@@H]3O[C@@]4(C)CC[C@@H]1[C@]32OO4 (stereo partly drawn) [Dihydroartemisinin]	5 ± 4.3	21.1 ± 7.9	6.7 ± 4.1
C[C@@H]1CC[C@H]2[C@@H](C)C(=O)O[C@@H]3O[C@@]4(C)CC[C@@H]1[C@]32OO4 [Artemisinin]	17.1 ± 4.2	18.4 ± 4.3	3.2 ± 3.7
CO[C@H]1O[C@@H]2O[C@@]3(C)CC[C@H]4[C@H](C)CC[C@@H]([C@H]1C)[C@@]24OO3 [Artemether]	4.1 ± 3.3	23 ± 2	1.8 ± 1.9
C[C@H]1[C@H](OC(=O)CCC(=O)O)O[C@@H]2O[C@@]3(C)CC[C@H]4[C@H](C)CC[C@@H]1[C@@]24OO3 [Artesunate]	3.7 ± 2.9	21.1 ± 3.9	2.3 ± 0.4
CN1CCN(C2CCN(C(=O)CC3CCC4(CC3)OOC3(OO4)C4CC5CC(C4)CC3C5)CC2)CC1 (stereo not drawn)	12.3 ± 4.9	19.1 ± 2	23.2 ± 4.2
